Holding throughout (type): biochemical
One assay concerns the target T1, SAPK3/p38g (Homo sapiens, UniProt P53778).
T1 sequence (P53778 1-367): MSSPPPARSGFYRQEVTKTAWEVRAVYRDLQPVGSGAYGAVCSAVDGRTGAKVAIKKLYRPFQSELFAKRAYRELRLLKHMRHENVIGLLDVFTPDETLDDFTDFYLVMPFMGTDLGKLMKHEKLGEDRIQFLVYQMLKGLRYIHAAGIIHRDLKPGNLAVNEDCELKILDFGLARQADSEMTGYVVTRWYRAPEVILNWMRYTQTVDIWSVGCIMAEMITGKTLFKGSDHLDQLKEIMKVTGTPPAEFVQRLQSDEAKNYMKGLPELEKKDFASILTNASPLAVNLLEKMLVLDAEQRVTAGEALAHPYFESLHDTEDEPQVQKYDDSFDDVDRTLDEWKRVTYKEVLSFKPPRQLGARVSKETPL
Nature of the assay: SAPK3/p38g 33P kinase assay. The following applies: read-out: SAPK3/p38g activity as percentage of control without inhibitor. The procedure: (§1) All assays (25.5 μl) were carried out at room temperature (21° C.) and were linear with respect to time and enzyme concentrations under the conditions used. Assays were performed for 30 minutes except assays for LCK and PKB which were performed for 15 minutes using Multidrop Micro reagent dispensers (Thermo Electron Corporation, Waltham, Mass. 02454, USA) in a 96-well format. The concentration of […] [γ-^33P] ATP (800 cpm/pmol) in the assays was one of three concentrations (5, 20 or 50 μM) in order to be at or below Km for ATP for the enzyme. Assays were initiated with MgATP and stopped by addition of 5 μl of 0.5M orthophosphoric acid. Assays were then harvested onto P81 filterplates using a unifilter harvester (PerkinElmer, Boston, Mass. 02118, USA), with a wash buffer of 50 mM orthophosphoric acid. Filterplates were then air dried overnight. 10 μl of Microscint O was added per well prior to counting for radioactivity.
(§2) MKK1, JNK/SAPK1c, SAPK2a/p38, SAPK2b/p38β2, SAPK3/p38γ, SAPK4/p38δ, MAPK2/ERK2, MAPKAP-K1β, MAPKAP-K2, MSK1, PRAK, PKA, PKCα, PDK1, SGK, p70S6K, GSK3β, ROCK-II, PRK2, AMPK, CHK1, CHK2, CK2, PHK, LCK, were assayed according to Davies et al., (Davies, S. P., Reddy, H., Caivano, M. and Cohen, P. Biochem. J. 351, 95-105, 2000.
(§3) CSK and CDK2/cyclinA, were assayed according to Bain et al. (Bain J, McLauchlan H, Elliott M, Cohen P. Biochem J. 371, 199-204, 2003., except that ATP concentrations were either 5, 20 or 50 micromolar so that they were at or below the Km for ATP. The ATP concentrations used were as follows, 5 μM for assays of MKK1, SAPK3, SAPK4, GSK3β, PRK2 CK2 20 μm for assays of JNK, SAPK2β, MAPKAP-K2, MSK1, PRAK, PKA, […], PDK1, SGK, p70S6K, ROCK-II, CHK1, CHK2, CSK, CDK2, and 50 μM for assays of SAPK2a, MAPK2/ERK2, AMPK, LCK, PHK and MAPKAP-K1β.

For a further assay, the target named is T2, PDK1 (Homo sapiens, UniProt O15530).
T2 sequence (O15530 1-556): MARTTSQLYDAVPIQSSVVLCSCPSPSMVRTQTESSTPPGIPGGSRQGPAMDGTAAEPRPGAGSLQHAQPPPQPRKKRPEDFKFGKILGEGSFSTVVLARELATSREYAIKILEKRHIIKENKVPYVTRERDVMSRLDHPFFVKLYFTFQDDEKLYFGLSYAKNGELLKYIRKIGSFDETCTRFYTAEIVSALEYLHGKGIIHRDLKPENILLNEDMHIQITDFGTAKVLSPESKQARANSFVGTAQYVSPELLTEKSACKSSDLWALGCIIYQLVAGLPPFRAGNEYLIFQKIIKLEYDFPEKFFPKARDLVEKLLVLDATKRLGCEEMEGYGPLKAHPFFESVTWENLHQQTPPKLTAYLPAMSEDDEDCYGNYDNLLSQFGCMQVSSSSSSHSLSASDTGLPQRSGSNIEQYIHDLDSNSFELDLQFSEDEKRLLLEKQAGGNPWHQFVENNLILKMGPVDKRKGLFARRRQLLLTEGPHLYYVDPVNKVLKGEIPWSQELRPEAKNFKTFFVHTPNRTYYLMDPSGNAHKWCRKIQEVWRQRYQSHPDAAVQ
The experiment in a line: PDK1 33P kinase assay. As to conditions: for remaining activity at 1 µM: inhibitor 1 μM, read-out: PDKI activity as percentage of control without inhibitor; for remaining activity at 10 µM: inhibitor 10 μM, read-out: PDK1 activity as percentage of control without inhibitor. Here is the method: as §1, §2, §3

A further assay concerns CK2. The experiment in a line: CK2 33P kinase assay. Here is the method:
as §1, §2, §3

Read-outs that look alike come from different tables or passages of the source.

Consider three compounds from patent publication US20100063085A1, “METHOD OF TREATING LEARNING IMPAIRMENT IN DOWN'S SYNDROME SUBJECTS” (University Court of The University of Dundee, priority 2008, published 2010).

As to `COc1ccc2c(c1)[nH]c1c(C)nccc12` [Harmine], the remaining activity at 1 µM on SAPK3/p38g is 82%; at PDK1, 89%. Further, the remaining activity at 10 µM came out at 72% on SAPK3/p38g and 95% at PDK1. The “CK2 activity as percentage of control without inhibitor” value was 82% in the assay on CK2 (inhibitor 1 μM) and 41% in the assay with CK2 (inhibitor 10 μM).
In the case of `CC1=NCCc2c1[nH]c1cc(O)ccc21` [Harmalol], the remaining activity at 1 µM at SAPK3/p38g (inhibitor 1 μM) turned out to be 98%; on PDK1 it was 88%. The remaining activity at 10 µM came out at 92% on SAPK3/p38g (inhibitor 10 μM) and 96% at PDK1. Also, the “CK2 activity as percentage of control without inhibitor” value in the assay on CK2 (inhibitor 1 μM) is given as 55%; in the assay with CK2 (inhibitor 10 μM), 12%.
On to `COc1ccc2c3c([nH]c2c1)C(C)=NCC3` [Harmaline], for which the results for the remaining activity at 1 µM at SAPK3/p38g (inhibitor 1 μM) and on PDK1 were 98% and 100%, respectively. For the same compound, the remaining activity at 10 µM was determined as 94% at SAPK3/p38g (inhibitor 10 μM) and 95% at PDK1. The “CK2 activity as percentage of control without inhibitor” value with CK2 (inhibitor 1 μM) worked out at 94%; in the assay with CK2 (inhibitor 10 μM), 88%.
